The subject of assay [1] is Monkey. Briefly: Physical dependence capacity at abstinence suppressant dose; No. Particulars: Cercopithecidae. In kind it is functional, organism-based.
Assay [2] is filed under the species Mus musculus. Briefly: The compound was tested for its analgesic activity in mouse; Inactive. Type of assay: functional, organism-based.
Assay [3] relates to Monkey. As to the kind of experiment: Physical dependence capacity at abstinence suppressant dose; Very low. Type of assay: functional, organism-based. Particulars: Cercopithecidae.
The subject of assay [4] is Monkey. As to the kind of experiment: Physical dependence capacity at abstinence suppressant dose; Intermediate. Type of assay: functional, organism-based. The following applies: Cercopithecidae.
For assay [5], the species on record is Mus musculus. Briefly: Analgesic activity in mouse. Type of assay: functional.
For assay [6], the system named is Monkey. Briefly: Physical dependence capacity at abstinence suppressant dose; None. In kind it is functional, organism-based. Particulars: Cercopithecidae.
Assay [7] is described as follows: Abstinence suppressant dose of the compound; range 2-12mg/kg, no suppression. Type of assay: functional.
Assay [8] has as its system Monkey. As to the kind of experiment: Physical dependence capacity at abstinence suppressant dose; Low. In kind it is functional, organism-based. Particulars: Cercopithecidae.
Assay [9] can be described thus: Abstinence suppressant dose of the compound. In kind it is functional.
A short description of assay [10]: Abstinence suppressant dose of the compound; range 3-30 mg/kg, no suppression. Type of assay: functional.
Assay [11] can be described thus: Abstinence suppressant dose of the compound; range 1-16 mg/kg, no suppression. In kind it is functional.
Assay [12] is described as follows: Abstinence suppressant dose of the compound; range 0.5-12 mg/kg, no suppression. In kind it is functional.
In assay [13] the test system is Monkey. As to the kind of experiment: Physical dependence capacity at abstinence suppressant dose; high. In kind it is functional, organism-based. Particulars: Cercopithecidae.
Assay [14] is described as follows: Abstinence suppressant dose of the compound; range 2-60 mg/kg, no suppression. Type of assay: functional.
Assay [15] in a line: Abstinence suppressant dose of the compound; range 2-60 no suppression. Type of assay: functional.
Assay [16] deals with Monkey. Briefly: Physical dependence capacity at abstinence suppressant dose; low. In kind it is functional, organism-based. The following applies: Cercopithecidae.
Assay [17] deals with Monkey. Briefly: Physical dependence capacity at abstinence suppressant dose; High. Particulars: Cercopithecidae. In kind it is functional, organism-based.

The source made the active and inactive calls. The rule behind the calls is not given here.

Consider `C[C@H]1C2Cc3ccc(O)cc3[C@]1(C)CCN2C` (single isomer, unassigned; (+)), for which the Physical dependence capacity entry with Monkey [1] is “No dependance”. Besides, in the assay listed under Mus musculus [2], the ED50 (commonly the midpoint of the dose-response relation) is “inactive”.

As for `CN1CC[C@]2(C)CC1Cc1ccc(O)cc12` (single isomer, unassigned; (+)) [listing 1 of 2 here], in the assay on Monkey [3], the Physical dependence capacity result is recorded as “Very low”.

On to `CC[C@H]1C2Cc3ccc(O)cc3[C@]1(CC)CCN2C` (single isomer, unassigned; (+)) [listing 1 of 2 here], for which, in the assay with Monkey [4], the Physical dependence capacity entry was “Intermediate”.

As to `CC[C@]12CCN(C)C(Cc3ccc(O)cc31)C2` (single isomer, unassigned; (-)) [listing 1 of 2 here], the Physical dependence capacity result in the assay with Monkey [1] was “No dependance”.

Regarding `CCC[C@]12CCN(C)C(Cc3ccc(O)cc31)[C@@H]2C` (single isomer, unassigned; (+)) [listing 1 of 2 here], the ED50 in the assay filed under Mus musculus [5] worked out at 12.3 mg/kg.

With `CCC[C@]12CCN(C)C(Cc3ccc(O)cc31)[C@@H]2C` (single isomer, unassigned; (-)) [listing 1 of 2 here], the Physical dependence capacity entry in the assay with Monkey [1] is “No dependance”.

With `CC[C@H]1C2Cc3ccc(O)cc3[C@]1(C)CCN2C`, the Physical dependence capacity result in the assay with Monkey [6] was “inactive”. For the same compound, in [7], the Dose was 2 mg/kg.

In the case of `CC1C2Cc3ccc(O)cc3[C@]1(C)CCN2C` (some centres undefined), the Physical dependence capacity result in the assay on Monkey [8] is recorded as “Low”. Besides, the Dose in assay [9] is above 18 mg/kg.

`CCC[C@]12CCN(C)C(Cc3ccc(O)cc31)C2`: the Physical dependence capacity entry in the assay with Monkey [6] is “inactive”. Further, the Dose in [10] was determined as 3 mg/kg.

Consider `CN1CC[C@]2(C)CC1Cc1ccc(O)cc12` (single isomer, unassigned; (-)) [listing 1 of 2 here], for which the Physical dependence capacity entry with Monkey [8] is “Low”.

In the assay filed under Mus musculus [5], `CC[C@]12CCN(C)C(Cc3ccc(O)cc31)C2` (single isomer, unassigned; (-)) [listing 2 of 2 here] yielded an ED50 of 0.6 mg/kg.

For `CC[C@]12CCN(C)C(Cc3ccc(O)cc31)C2` [listing 1 of 2 here], in assay [11], the Dose is 1 mg/kg.

On to `CC[C@H]1C2Cc3ccc(O)cc3[C@]1(CC)CCN2C` (single isomer, unassigned; (+)) [listing 2 of 2 here], for which the ED50 in the assay listed under Mus musculus [5] was found to be 7.5 mg/kg.

On to `CCC1C2Cc3ccc(O)cc3[C@]1(CC)CCN2C` (some centres undefined), for which the Physical dependence capacity result with Monkey [6] is “inactive”. The same compound had a Dose in assay [12] of 0.5 mg/kg.

Turning to `CN1CC[C@]2(C)CC1Cc1ccc(O)cc12` (single isomer, unassigned; (+)) [listing 2 of 2 here], the 50% effective dose (ED50) in the assay filed under Mus musculus [5] worked out at 22.9 mg/kg.

Turning to `CC[C@]12CCN(C)C(Cc3ccc(O)cc31)C2` [listing 2 of 2 here], in the assay on Monkey [8], the Physical dependence capacity entry is “Low”.

`COc1ccc2c3c1O[C@H]1[C@@H](O)C=C[C@H]4[C@@H](C2)N(C)CC[C@@]341` [CODEINE]: the Physical dependence capacity result with Monkey [4] was “Partially active”. Moreover, the ED50 in the assay listed under Mus musculus [5] (Mus musculus, read-out: ED50) was found to be 7.5 mg/kg.

As to `CN1CC[C@]23c4c5ccc(O)c4O[C@H]2[C@@H](O)C=C[C@H]3[C@H]1C5` [MORPHINE], the Physical dependence capacity entry in the assay with Monkey [13] was “Active”. Also, the ED50 in the assay listed under Mus musculus [5] (Mus musculus, read-out: ED50) amounted to 1.2 mg/kg.

Take `CC[C@H]1C2Cc3ccc(O)cc3[C@]1(CC)CCN2C` (single isomer, unassigned; (-)) [listing 1 of 2 here]: in the assay on Monkey [1], the Physical dependence capacity result is “No dependance”.

The compound `CN1CC[C@]2(C)CC1Cc1ccc(O)cc12` [listing 1 of 2 here] came in with a Dose in assay [14] of 2 mg/kg.

As to `CC[C@H]1C2Cc3ccc(O)cc3[C@]1(CC)CCN2C` [listing 1 of 2 here], the Dose in assay [15] was 2 mg/kg.

For `CC[C@]12CCN(C)C(Cc3ccc(O)cc31)C2` (single isomer, unassigned; (+)) [listing 1 of 2 here], the ED50 in the assay listed under Mus musculus [5] turned out to be 21.8 mg/kg.

On to `CC[C@]12CCN(C)C(Cc3ccc(O)cc31)[C@@H]2C`, for which the Physical dependence capacity result in the assay with Monkey [8] is recorded as “Low”. The compound also gave a Dose in assay [9] above 40 mg/kg.

Compound `CN1CC[C@]2(C)CC1Cc1ccc(O)cc12` (single isomer, unassigned; (-)) [listing 2 of 2 here] gave an ED50 in the assay filed under Mus musculus [5] of 1.8 mg/kg.

Take `C[C@H]1C2Cc3ccc(O)cc3[C@]1(C)CCN2C` [listing 1 of 2 here]: the Dose in assay [9] came to 24 mg/kg.

Consider `C[C@H]1C2Cc3ccc(O)cc3[C@]1(C)CCN2C` [listing 2 of 2 here], for which the Physical dependence capacity result in the assay with Monkey [8] is listed as “Low”.

As to `C[C@H]1C2Cc3ccc(O)cc3[C@]1(C)CCN2C` (single isomer, unassigned; (-)) [listing 1 of 2 here], in the assay with Monkey [1], the Physical dependence capacity entry was “No dependance”.

Turning to `CC[C@]12CCN(C)C(Cc3ccc(O)cc31)C2` (single isomer, unassigned; (+)) [listing 2 of 2 here], in the assay on Monkey [16], the Physical dependence capacity entry is given as “Low”.

For `CN1CC[C@]2(C)CC1Cc1ccc(O)cc12` [listing 2 of 2 here], in the assay on Monkey [6], the Physical dependence capacity entry was “inactive”.

Regarding `CC[C@]12CCN(C)C(Cc3ccc(O)cc31)C2C` (some centres undefined), in the assay on Monkey [4], the Physical dependence capacity result is “Intermediate”. This compound displayed a Dose in [9] of 1 mg/kg.

Turning to `CC[C@H]1C2Cc3ccc(O)cc3[C@]1(CC)CCN2C` (single isomer, unassigned; (-)) [listing 2 of 2 here], the ED50 in the assay filed under Mus musculus [5] worked out at 1.2 mg/kg.

Compound `CCC[C@]12CCN(C)C(Cc3ccc(O)cc31)[C@@H]2C` (single isomer, unassigned; (-)) [listing 2 of 2 here] yielded an ED50 in the assay filed under Mus musculus [5] of 0.8 mg/kg.

With `C[C@H]1C2Cc3ccc(O)cc3[C@]1(C)CCN2C` (single isomer, unassigned; (-)) [listing 2 of 2 here], the ED50 in the assay filed under Mus musculus [5] (Mus musculus, read-out: ED50) amounted to 0.6 mg/kg.

`CCC[C@]12CCN(C)C(Cc3ccc(O)cc31)[C@@H]2C` (single isomer, unassigned; (+)) [listing 2 of 2 here]: the Physical dependence capacity entry with Monkey [17] was “High”.

For `CC[C@H]1C2Cc3ccc(O)cc3[C@]1(CC)CCN2C` [listing 2 of 2 here], the Physical dependence capacity entry in the assay on Monkey [6] was “inactive”.

The record behind these values is ChEMBL document CHEMBL1121574, “Third Smissman Award address: reminiscences and musings of a classical medicinal chemist” (J Med Chem, 1980).
